The values below come from patent US20060276440A1, “Treatment of inflammatory disorders” (priority 2005, published 2006).

Type in all cases: cell-based, human
The subject of one assay is MMP-13 mRNA. The assay is described as follows: MMP-13 mRNA by Taqman in OSM/IL-1-stimulated SW1353 cells. The conditions noted are these: FIG. 13A. On the procedure:
(§1) Total RNA was isolated using RNAzol™ B (TEL-TEST Inc., Friendswood, Tex.). SuperScript™ first-strand synthesis system (Invitrogen) was used for cDNA generation. All oligonucleotide primers and fluorescent-labeled TaqMan probes were from Applied Biosystems (Foster City, Calif.). Relative quantization of gene expression was performed using the MX3000p real-time PCR instrument (Stratagene, La Jolla, Calif.). PCR reactions for all samples were performed in triplicates using 50 ng of cDNA. To compensate for the variation in the total cDNA, all readouts were normalized to an endogenous control (18S ribosomal RNA). Thermocycler conditions comprised an initial holding at 50° C. for 2 min, then 95° C. for 10 min, followed by a 2-step TaqMan PCR program consisting of 95° C. for 15 seconds, and 60° C. for 60 seconds for 40 cycles. The relative changes in gene expression were quantified as described in Applied Biosystems User Bulletin NO. 2 (P/N 4303859).
(§2) The cellular and molecular mechanisms by which CA4 repressed pro-MMP-13 production, using SW1353 as the model system were investigated. […] The pathways that mediate OSM and IL-1 signal transduction were then examined. […]

The test system of a further assay is NF-κB. The assay is described as follows: NF-κB reporter activity in transfected SW1353 cells. The conditions noted are these: 2 hrs pretreatment prior to IL-1/OSM, FIG. 14D. The method, then: SW1353 cells were plated at 100,000 in 24-well plates and cultured overnight in 10% FCS-DMEM/F-12. The following day, cells were transfected with 0.3 ug total DNA (pNF-kB-Luc reporter plasmid, BD biosciences San Jose, Calif.) using Lipofectamine™ 2000 (Invitrogen), according to the manufacturer's instructions. After overnight incubation, cells were washed in F12 media, pretreated with CA4 for 2 hrs, and then activated with IL-1/OSM (6 hrs) before measuring reporter activity.
The cellular and molecular mechanisms by which CA4 repressed pro-MMP-13 production, using SW1353 as the model system were investigated. […] The pathways that mediate OSM and IL-1 signal transduction were then examined. Using inhibitors that target key components of the pathways, it was shown that JAK/STAT, p38, JNK, and NF-κB pathways were important for OSM/IL-1-stimulated pro-MMP-13 production (FIG. 13B-E), but not ERK or Cox1/2 pathways (data not shown). These pathways were then examined to ascertain if activities of key components of these pathways were affected by CA4. […] Cells were pretreated with CA4 (20 nM) for 2 hrs and then activated with IL-1/OSM for 15 minutes. JNK (pT183/pY185), and ERK1/2 (pT202/pY204) phosphorylation was also not affected by CA4 (data not shown). […] Cells were pre-treated with CA4 or kamebakaurin (KA), for 2 hrs prior to IL-1/OSM activation. […]

The test system of assay [1] is AP-1 (c-fos, c-Jun) and Runx2. The assay is described as follows: mRNA of transcriptional factors AP-1 (c-fos, c-Jun) and Runx2 by Taqman in SW1353 cells. Conditions: 20 nM; OSM/IL-1-stimulated or unstimulated SW1353; 2 hr or 14 hr. On the procedure: as §1, §2

As for `COc1ccc(/C=C\c2cc(OC)c(OC)c(OC)c2)cc1O` [Combretastatin A4 (1), (Z)-5-(3,4,5-trimethoxystyryl)-2-methoxyphenol], the “OSM/IL-1-induced MMP-13 mRNA levels” value with MMP-13 mRNA was “represses OSM/IL-1-induced MMP-13 mRNA levels”. In addition, the NF-κB reporter activity result with NF-κB is “did not inhibit”. Besides, the “messenger RNA levels of AP-1 (c-fos, c-Jun) and Runx2” value in assay [1] is listed as “none of these factors as detected by Taqman were significantly altered”.
